One data set concerns A2780cis. Nature of the data set: MTT cytotoxicity assay, A2780cis cisplatin-resistant ovarian cancer cells. The note with it: 48 h, IC50 ± SD. The data set is classed as cell-based, human. On the procedure: (§1) Human cell lines A549 (lung cancer, ATCC No. CCL-185), MRC-5 (nontumoral lung, ATCC No. CCL-171), MCF-7 (breast cancer, ATCC No. HTB-22), and A2780cis (cisplatin-resistant ovarian cancer, ECACC No. 93112517) were used to evaluate the cytotoxic activity of the metal complexes. The A549 and MRC-5 cell lines were cultured in DMEM (Dulbecco’s Modified Eagle’s Medium), while the MCF-7 and A2780cis cell lines were maintained in RPMI-1640 (Roswell Park Memorial Institute) medium. Both media were supplemented with 10% fetal bovine serum (FBS), penicillin (100 U/mL), streptomycin ([…]), and L-glutamine (2 mM). The cells were grown in monolayers using disposable 25 cm^2 flasks and incubated at 37 °C in a 5% CO2 atmosphere.
(§2) The cytotoxicity of the compounds was determined using the MTT colorimetric assay (3-(4,5-dimethylthiazol-2-yl)-2,5-diphenyl tetrazolium bromide), as described by Mosmann. The cells were trypsinized for counting and concentration adjustment and then seeded in 96-well plates (1.5 × 10^4 cells/well). The plates were incubated at 37 °C in a 5% CO2 atmosphere for 24 h to allow cell adhesion. […] Absorbance was measured at 570 nm using a Varioskan LUX Multimode Microplate Reader (VL000D0). […]
(In general: Tetrazolium dyes change colour on reduction, which living cells bring about.)

For a further data set, the system named is MRC-5. Nature of the data set: MTT cytotoxicity assay, MRC-5 noncancerous lung cells. The data set is classed as cell-based, human. The note with it: IC50 ± SD. Here is the method:
as §1, §2

A further data set relates to A549. Nature of the data set: MTT cytotoxicity assay, A549 lung cancer cells. The class given is cell-based, human. Particulars: IC50 ± SD. Here is the method:
as §1, §2

The subject of a further data set is MCF-7. Nature of the data set: MTT cytotoxicity assay, MCF-7 breast cancer cells. Particulars: IC50 ± SD. The class given is cell-based, human. Here is the method: as §1, §2
A short description of data set [1]: Molar conductance in DMSO over 48 h. The class given is physicochemical. Particulars: 10^-3 M in DMSO, room temperature. Here is the method:
DMSO solutions (10^–3 M) of the Hapmc and metal(II) complexes were subjected to molar conductance measurements at room temperature over 48 h, and the observed values are presented in Table S2.
The solvents and reagents were purchased from commercial sources and used without purification. The FT-IR spectra of the compounds were obtained from KBr pellets, using an FT-IR Varian 640 spectrometer in the range of 4000–400 cm^–1. Electrospray ionization mass spectrometry analysis (ESI-MS) was performed on an AB Sciex Triple TOF 5600+ mass spectrometer in positive mode, with a voltage of 5500 V and source temperature of 200 °C. ^1H nuclear magnetic resonance spectra were collected on a Varian Mercury Plus (600 MHz), with TMS as internal reference and DMSO-d 6 as solvent. Elemental analysis of CHN was performed with a PerkinElmer/Series II 2400 analyzer. Electronic spectra were obtained using a UV–vis–NIR Varian Cary 5000 spectrophotometer using 20 μM or 1 mM solutions prepared in methanol or DMF. The molar conductance of a 10^–3 M solution of ligand and metal complexes in DMSO was measured at room temperature using a Quimis Q405 M conduct meter.

Turning to `N.N.[Cl][Pt][Cl]` [Cisplatin, reference compound], the IC50 (in general, the midpoint of a concentration-inhibition curve) worked out at 37 µM in the data set on A2780cis, 29.1 µM with MRC-5 (48 h), 11.5 µM in the data set with A549 (48 h) and 14 µM in the data set on MCF-7 (48 h).
Regarding `COC(=O)N/N=C(\C)c1ccccn1` [Hapmc, 2-acetylpyridine-methylcarbazate], the “Molar conductivity, 0 hours” value in data set [1] (0 hours) is 1.90 Ω -1.cm2.mol-1. Besides, the “Molar conductivity, 24 hours” value in data set [1] (24 hours) is 2.37 Ω -1.cm2.mol-1. The “Molar conductivity, 48 hours” value in data set [1] (48 hours) is given as 2.48 Ω -1.cm2.mol-1. Besides, the IC50 in the data set on A2780cis (Homo sapiens, A2780cis) is greater than 100 µM; with MRC-5 (Homo sapiens, MRC5, 48 h), greater than 100 µM; with A549 (Homo sapiens, A549, 48 h), greater than 100 µM; in the data set with MCF-7 (Homo sapiens, MCF7, 48 h), greater than 100 µM.

Source of the values: article PMC12138593, “Synthesis, Crystal Design and Anticancer Potential of Novel Cu(II), Ni(II), and Pd(II) Complexes with Carbazate Ligand” (ACS Omega, 2025).
